# Experiments:
# [1] = tested on: irritable bowel syndrome; settings: patient
# Procedure: The patient, a patient suffering from irritable bowel syndrome presented symptoms of nausea, vomiting, abdominal pain, and altered bowel habits. This patient was treated with lupron, 2.0 mg/day by subcutaneous injection, for a period of six months. […] Nafarelin is a GnRH analog available from SYNTEX, which differs from the natural GnRH peptide in a D-Nal (2)^6 substitution. […] Nafarelin therapy was discontinued, and treatment with Danazol, a 17-ethyltestosterone derivative known to antagonize GnRH receptors at the level of the pituitary, was begun, at 200 mg four times daily, P.O., for a period of three months.
# [2] = tested on: serum estradiol, progesterone, LH, FSH; assay: Serum estradiol, progesterone, FSH and LH by radioimmunoassay before and after three months of leuprolide; type: in vivo, human; settings: for Estradiol after 3 months / Progesterone after 3 months / FSH after 3 months / LH after 3 months: serum
# From the text: The symptoms of the two patients with GMD were abdominal pain located in the right upper quadrant and epigastrium, daily nausea, and intermittent vomiting exacerbated by eating and by the luteal phase of the menstrual cycle. The two patients with IIHVN had abdominal pain, nausea, and intermittent vomiting, and also had urinary tract involvement consisting of pain and a decrease in urination. The fifth patient had Roux-en-Y syndrome (defined as epigastric-to-right-upper-quadrant pain, nausea, and vomiting increased by eating) after surgical construction of a gastro-jejunal Roux-en-Y anastomosis. The mean duration of these symptoms was eight years (Table 1). All subjects had undergone extensive blood testing, several upper gastrointestinal x-ray series, barium enemas, esophagogastroduodenoscopy, endoscopic retrograde cholangiopancreatography, gastric emptying tests with radiolabeled meal, ultrasound of the abdomen, computerized axial tomography of the abdomen, and many other tests. The results of all tests were normal, except for prolonged gastric emptying in the patient with the Roux-en-Y Syndrome. Because of their intractable clinical problem, these patients were included in the test protocol with leuprolide acetate. Protocol: The symptoms of each patient were first assessed, and their tests evaluated. Each patient kept a daily symptom diary. Leuprolide acetate was obtained by prescription as Lupron (TAP pharmaceuticals, Abbott Labs, North Chicago, Ill.). One multi-use vial of Lupron comprised of […] Leuprolide Acetate. A daily dose of 0.5 mg ([…]) was self-administered by subcutaneous injection, for a period of three months. Each patient was examined at 0, 1 and 3 months of treatment. After the third month, leuprolide was continued as previously, and estrogen (0.625 mg orally) and calcium (1000 mg orally) were also administered. At the end of the sixth month, a two week withdrawal period from leuprolide acetate ensued. During this period a 10 mg oral dose of progesterone was given to pre-menopausal patients, to assess recurrence of symptoms and to induce menses. Post-menopausal women were not treated with progesterone during the two week withdrawal period. This procedure was then continued for an additional six months, with drug withdrawal and progesterone given every three months to induce a menstrual cycle. Serum estradiol, progesterone, FSH, and LH were quantitated by radioimmunoassay prior to the initiation of leuprolide treatment, and at three months post treatment initiation.
# [3] = after three months of treatment vs baseline
structure (smiles),measurement,setting,value
"CCNC(=O)[C@@H]1CCCN1C(=O)[C@H](CCCNC(=N)N)NC(=O)[C@H](CC(C)C)NC(=O)[C@@H](CC(C)C)NC(=O)[C@H](Cc1ccc(O)cc1)NC(=O)[C@H](CO)NC(=O)[C@H](Cc1c[nH]c2ccccc12)NC(=O)[C@H](Cc1c[nH]cn1)NC(=O)[C@@H]1CCC(=O)N1 [Leuprolide acetate, leuprolide acetate]",Blood levels of FSH and LH,"[1]; 2.0 mg/day s.c., six months (entry one)",effectively reduced their blood levels of FSH and LH
same,Symptoms of irritable bowel disease,"[1]; 2.0 mg/day s.c., six months (entry two)",effectively reduced the symptoms of their irritable bowel disease
same,Irritable bowel symptoms,"[1]; depot of 7.5 mg I.M. monthly with 100 mg testosterone depot I.M. monthly, after six months",controlled without side effects
same,Estradiol after 3 months,"[2]; Patient 1, baseline 44.0 pg/ml",13.0 pg/mL
same,Progesterone after 3 months,"[2]; Patient 1, baseline 3.0 n/ml",< 0.25 n/ml
same,FSH after 3 months,"[2]; Patient 1, baseline 12.1 mIU/ml",9.0 MIU/ml
same,LH after 3 months,"[2]; Patient 1, baseline 19.0 mIU/mL",6.0 mIU/ml
same,Estradiol after 3 months,"[2]; Patient 2, baseline 44.0 pg/ml",39.0 pg/mL
same,Progesterone after 3 months,"[2]; Patient 2, baseline 1.0 n/ml",< 0.25 n/ml
same,FSH after 3 months,"[2]; Patient 2, baseline 13.0 mIU/ml",11.0 MIU/ml
same,LH after 3 months,"[2]; Patient 2, baseline 16.0 mIU/ml",7.0 mIU/ml
same,Estradiol after 3 months,"[2]; Patient 3, baseline 28.0 pg/ml",3.4 pg/mL
same,LH after 3 months,"[2]; Patient 3, baseline 18.4 mIU/ml",11.2 mIU/ml
same,FSH after 3 months,"[2]; Patient 3, baseline 32.0 mIU/ml",11.2 mIU/ml
same,Progesterone after 3 months,"[2]; Patient 3, baseline <0.25 n/ml",< 0.25 n/ml
same,Estradiol after 3 months,"[2]; Patient 4, baseline 20.0 pg/ml",5.5 pg/mL
same,Progesterone after 3 months,"[2]; Patient 4, baseline 3.0 n/ml",< 0.25 n/ml
same,FSH after 3 months,"[2]; Patient 4, baseline 13.1 mIU/ml",7.9 mIU/ml
same,LH after 3 months,"[2]; Patient 4, baseline 18.3 mIU/ml",5.0 MIU/ml
same,Estradiol and FSH levels,[2]; [3],decreased
same,Levels of serum progesterone and LH,[2]; [3],significant decrease

# From patent US5434136A, “Treatment of motility disorders with a GNRH analog” (priority 1992, dated 1995)
